The values below come from ChEMBL document CHEMBL1157539, “Thousands of chemical starting points for antimalarial lead identification” (Nature, 2010).

The structures appear in SMILES notation.

The subject of the experiment is Plasmodium falciparum. Description: GSK_TCMDC: Inhibition of Plasmodium falciparum 3D7 in whole erythrocytes, using parasite LDH activity as an index of growth. Conditions: Plasmodium falciparum, 3D7. The experiment is classed as functional, organism-based.
`Cc1ccc(Nc2nc(N/N=C/c3cc4c(cc3Br)OCO4)nc(Nc3ccc([N+](=O)[O-])cc3)n2)cc1C` had an XC50 of 750 nM.

Molecule `CCN(CC)CCN(Cc1ccc(-c2ccc(C(F)(F)F)cc2)cc1)C(=O)Cn1c(SCc2ccc(F)cc2)nc(=O)c2ccccc21` displayed an XC50 of 773 nM.

In turn, `COc1ccc2nc3cc(Cl)ccc3c(NCCCCCCNc3c4ccc(Cl)cc4nc4ccc(OC)cc34)c2c1` registered an XC50 of 661 nM.

Molecule `O=C(Cc1ccccc1)NC(CCN1CCC(NC(=O)c2ccc(Cl)cc2)CC1)c1ccc(Cl)c(Cl)c1` (stereo not given) yielded an XC50 of 916 nM.

`CC1(C)NC(N)=NC(=N)N1OCCCCCOc1ccccc1` showed an XC50 of 3.2 nM.

Turning to `COc1ccc2nccc([C@@H](O)CN3CCC(NC(=O)C(c4ccsc4)N4CCN(c5ccccc5OC)CC4)CC3)c2c1` (stereo not given in full), the XC50 came to 832 nM.

`COc1ccc(C2CNCc3c2cc(OC)c(OC)c3Cl)cc1` (stereo not given) showed an XC50 of 731 nM.

Regarding `O=C(Nc1ccc(Cl)cc1)c1cccc(CN2CCCN(Cc3cccc(O)c3)CC2)c1`, the XC50 worked out at 957 nM.

The molecule `NC1CCN(CCNCc2cccc(-c3ccc(-c4nc5cc(C(F)(F)F)ccc5[nH]4)cc3)c2)C1` (stereo not given) came in with an XC50 of 893 nM.

Molecule `COC(=O)c1ccc(-c2ccc(-c3cccnc3)cc2C)cc1` returned an XC50 of 662 nM.

On to `N#CCCN1CCN(Cc2ccc(-c3cccc(-c4nc5cc(F)ccc5[nH]4)c3)cc2)CC1`, for which the XC50 amounted to 972 nM.

In turn, `N#Cc1ccc(N2CCN(Cc3cccc(-c4ccc(-c5nc6cc(C(F)(F)F)ccc6[nH]5)s4)c3)CC2)nc1` had an XC50 of 1040 nM.

`O=C(Cn1c(CCc2cccc(F)c2F)cc(=O)c2cccnc21)N(CCn1ccnc1)Cc1ccc(-c2ccc(C(F)(F)F)cc2)cc1` showed an XC50 of 672 nM.

Regarding `Clc1cccc(Cl)c1CCNCC1CCN(CC2CCCCC2)CC1`, the XC50 was 212 nM.

Regarding `CC(=O)c1ccc2nc[nH]c(=O)c2c1`, the XC50 came to 722 nM.

Molecule `COc1ccc2[nH]c(C)cc(=NN=Cc3ccccc3Cl)c2c1` yielded an XC50 of 601 nM.

`Cc1ccc(-c2nc(N3CCN(C(=O)c4ccco4)CC3)c3ccc(Cl)cc3n2)cc1`: the XC50 came out at 1210 nM.

For the molecule `COc1ccc2nccc([C@@H](O)CN3CCC(NCc4cc5ccccc5cn4)CC3)c2n1`, the XC50 was determined as 918 nM.

In the case of `CCC(C)NCC(O)(c1ccc(Cl)cc1)c1ccc(Cl)cc1` (stereo not given), the XC50 was 843 nM.

Molecule `Cc1cc(N[C@@H](Cc2ccccc2)C(=O)NC2CCCC2)nc(NCc2ccccc2C)n1` registered an XC50 of 1230 nM.

For the molecule `CCOC(=O)c1nc(-c2ccccc2)[nH]c1NC(=S)NC1CCCCC1`, the XC50 was determined as 836 nM.

`c1ccc(CN2CCC(NCc3ccc(-c4ccc(CNC5CCCC5)cc4)cc3)CC2)cc1` displayed an XC50 of 294 nM.

On to `CO/C(=C\C=C\c1cc2cc(Cl)c(Cl)cc2[nH]1)C(=O)NCCCN1CCN(c2cccc(OC)c2)CC1`, for which the XC50 came to 845 nM.

In the case of `CC(C)CCN1CCC(Oc2ccc(NC(=O)c3ccccc3)cc2Cl)CC1`, the XC50 was 1300 nM.

Molecule `CCN(CC)CCNC(=O)c1ccc(NC(=O)c2oc3c(Cl)cccc3c2C)cc1` yielded an XC50 of 703 nM.

Regarding `COc1ccc(Nc2nccc(-c3ccc(NC(=O)c4cc5cc(F)ccc5[nH]4)cc3)n2)cc1`, the XC50 turned out to be 630 nM.

`CCCCCCCCCN(CCC)C(=O)[C@@H]1OC(C(=O)OC(c2ccccc2)c2ccccc2)=C[C@H](NC(=O)OC(C)(C)C)[C@H]1NC(C)=O` returned an XC50 of 640 nM.

Regarding `NC1CCN(c2nc(NCCCc3ccc(O)cc3)nc(NCc3cccc4ccccc34)n2)CC1`, the XC50 turned out to be 724 nM.

The molecule `Cn1cnc2c(SCc3ccc(OCc4ccccc4)cc3)ncnc21` yielded an XC50 of 557 nM.

Molecule `CCCCN1CCCC[C@H]1[C@@H](O)c1ccnc2ccc(OCC)cc12` came in with an XC50 of 773 nM.

In turn, `COc1ccc2nccc(CCC3(O)CCC(NCc4cc5c(cc4F)SCC(=O)N5)CC3)c2c1` (stereo not given) had an XC50 of 675 nM.

Regarding `CC(C)(C)c1ccc(NC(=O)c2cccc(CN3CCCN(CC4CCCCC4)CC3)c2)cc1`, the XC50 amounted to 737 nM.

Molecule `CC1CCCCN1CCCNc1nc(NCc2ccccc2)c2ccccc2n1` (stereo not given) registered an XC50 of 953 nM.

Molecule `COc1cc(F)c2nccc([C@@H](O)CN3CCC(NCc4nc5cccc(F)c5[nH]4)CC3)c2c1` returned an XC50 of 847 nM.

Molecule `Cc1cc(N[C@@H](Cc2ccccc2)C(=O)Nc2ccccc2)nc(NCCc2cccnc2)n1` returned an XC50 of 1340 nM.

`CC(C)(C)c1ccc(CN2CCCCC(NC(=O)c3cc(-c4cccc(Cl)c4)cs3)C2)cc1` (stereo not given): the XC50 was found to be 999 nM.

`Cc1cc(N2CCC(NS(=O)(=O)c3ccccc3)CC2)nc(Nc2cccc(C#N)c2)n1`: the XC50 stood at 1350 nM.

`CCCCCOc1ccc(C(O)C(CN2CCCCC2)c2ccccc2)cc1` (stereo not given) returned an XC50 of 877 nM.

The molecule `Cc1nc(C)c(-c2ccc(Oc3ccc(OC(F)(F)F)cc3)cc2)c(OC(=O)c2ccccc2)c1Cl` registered an XC50 of 182 nM.

With `CC(C)c1ccc(NC(=O)c2ccc(C(=O)NC3CCN(Cc4ccsc4)C3)cc2)cc1` (stereo not given), the XC50 turned out to be 1030 nM.

On to `CCCCCCCn1c2c(c(=N)c3c1CCC3)CCCC2`, for which the XC50 was 102 nM.

As to `Cc1ccc2c(Cc3cnc(N)nc3N)cc(C)c(N)c2n1`, the XC50 was 1420 nM.

In turn, `CN(C)CCOc1ccc(NC(=O)NC(C)(C)c2nc(-c3ccc(Cl)c(O)c3)c(-c3ccncc3)[nH]2)cc1` came in with an XC50 of 113 nM.

Take `COc1cc(-c2nnc(SCC(=O)Nc3cc(C)on3)n2C)cc(OC)c1O`: the XC50 worked out at 177 nM.

The molecule `CS(=O)(=O)c1cccc(-c2ccc3oc(C(N)=O)c(NC(=O)c4cccs4)c3c2)c1` registered an XC50 of 589 nM.

`C=C[C@]1(C)C[C@@H](OC(=O)NC(=O)CCCS(=O)(=O)c2nnc(C)s2)[C@]2(C)[C@H](C)CC[C@]3(CCC(=O)[C@H]32)[C@@H](C)[C@@H]1O` yielded an XC50 of 31.5 nM.

Molecule `O=C(Nc1ccc(-c2nc3ccccc3[nH]2)cc1)c1cncc(Br)c1` had an XC50 of 814 nM.

For the molecule `Cc1cc(C(=O)NC2CCN(Cc3ccccc3)CC2)ccc1-c1nc2ccc(C(F)(F)F)cc2[nH]1`, the XC50 was found to be 891 nM.

Molecule `O=C(C=Cc1ccccc1)Nc1ccc(C#CC=Cc2ccc(NC(=O)C=Cc3ccccc3)cc2)cc1` registered an XC50 of 847 nM.

As for `CC(C)(CNCc1ccc(F)c(F)c1)c1nc(-c2ccc(Cl)c(O)c2)c(-c2ccncc2)[nH]1`, the XC50 was 660 nM.

With `CCN(CC)CCCC(C)N=c1cc(C=Cc2ccccc2Cl)[nH]c2cc(Cl)ccc12` (stereo not given), the XC50 worked out at 805 nM.

On to `Cc1cc(O)c(CN(C)Cc2ccc3c(c2)OCO3)cc1C(C)C`, for which the XC50 was 738 nM.

In turn, `Cc1cc(OCc2ccncc2)cc2c1C(=O)CC(C)(C)O2` came in with an XC50 of 183 nM.

Consider `O=C(NCc1cccc(Br)c1)c1ccc(CNC2CCN(Cc3ccccc3)CC2)cc1`, for which the XC50 was found to be 875 nM.

The molecule `CNCCCNCc1ccc(-c2ccc(F)c(Cl)c2)o1` returned an XC50 of 752 nM.

`COc1cc(Cc2cnc3nc(N)nc(N)c3c2C)cc(OC)c1OC` showed an XC50 of 64.2 nM.

In turn, `O=C(/C=C/c1ccccc1Cl)Nc1ccc(Br)c(OCCN2CCC(O)(c3ccccc3)CC2)c1` showed an XC50 of 483 nM.

In the case of `N#Cc1ccc2c(c1)CCN(CCC1CCC(NC(=O)/C=C/c3cc(Br)cs3)CC1)CC2` (stereo not given), the XC50 was 997 nM.

`O=C(/C=C/c1ccc(Cl)c(Cl)c1)NCCCCCN1CCC(NC(=O)Nc2cc(Cl)ccc2Cl)CC1` showed an XC50 of 433 nM.

Regarding `COc1ccc(C2CC(=O)C3=C(C2)NC(C)=C(C(=O)OC2CCCC2)C3c2cccc(O)c2)cc1OC` (stereo not given), the XC50 worked out at 216 nM.

`CC(=O)Oc1ccc(C(=O)Oc2ccccc2C#CC#N)cc1OC(C)=O` had an XC50 of 320 nM.

`CCOc1ccc2nc(NC(=O)c3csnn3)sc2c1`: the XC50 worked out at 476 nM.

Regarding `C[C@@H](Oc1cc(-n2cnc3ccc(OCC4CCN(S(C)(=O)=O)CC4)cc32)sc1C(N)=O)c1ccccc1C(F)(F)F`, the XC50 worked out at 1020 nM.

On to `CN(C)c1cccc(NC(=O)N[C@H]2N=C(c3ccccc3)c3ccccc3N(CC(=O)N3CCCC3)C2=O)c1`, for which the XC50 came out at 254 nM.

Consider `CS(=O)(=O)CCNCc1cccc(-c2cc3c(Nc4ccc(OCc5cccc(F)c5)c(Cl)c4)ncnc3s2)c1`, for which the XC50 came out at 198 nM.

As to `CN(C)S(=O)(=O)n1ncc2c3c(N)nc(N)nc3ccc21`, the XC50 stood at 178 nM.

In turn, `CN1CC[C@@H](Oc2cc(NC(=O)Nc3ccc(Cl)c(C(F)(F)F)c3)ccc2Cl)C1` came in with an XC50 of 994 nM.

For the molecule `O=C(Nc1cccc(-c2ccc(-c3nc4ccccc4[nH]3)s2)c1)c1ccncc1`, the XC50 amounted to 778 nM.

Take `CCOc1cc(C)ccc1N(C1CCN(CCCCNC(=O)c2ccc(-c3ccc(C(F)(F)F)cc3)cc2)CC1)S(=O)(=O)c1ccccc1`: the XC50 stood at 1020 nM.

`NC1CCN(c2nc(NCCCc3ccc(O)cc3)nc(NCc3ccccc3-c3ccccc3)n2)CC1` returned an XC50 of 678 nM.

Turning to `O=C(Nc1ccncc1)c1cn(-c2ccccc2)nc1-c1cccs1`, the XC50 was determined as 977 nM.

For the molecule `COc1ccc2nc3cc(Cl)ccc3c(Nc3ccc(Sc4ccc(Nc5c6ccc(Cl)cc6nc6ccc(OC)cc56)cc4)cc3)c2c1`, the XC50 stood at 199 nM.

In turn, `CN(C)c1ccc(NC2=NC(N)=NC(C)(C)N2)cc1` yielded an XC50 of 223 nM.

On to `CC[C@H]1CN2CC[C@@H]1C[C@H]2[C@H](O)c1cc(N2CCOCC2)nc2ccc(OC)cc12`, for which the XC50 came out at 118 nM.

`Cc1cc(Nc2cccc(C#N)c2)nc(Nc2ccccc2C)n1` had an XC50 of 861 nM.

Molecule `Cc1c(C(=O)N2CCCC(C(F)(F)F)C2)sc2cccc(F)c12` (stereo not given) returned an XC50 of 599 nM.

Molecule `CCOCCCNc1sc(S(=O)(=O)c2ccccc2)nc1S(=O)(=O)c1ccc(C)cc1` had an XC50 of 809 nM.

`O=[N+]([O-])c1cccc(-c2nc(-c3ccc(Br)cc3)[nH]c2-c2ccc(Br)cc2)c1` showed an XC50 of 759 nM.

In the case of `O=C(NC1CCC(CN2CCC(c3c[nH]c4ccccc34)CC2)CC1)[C@H]1Cc2ccccc2CN1` (stereo not given in full), the XC50 came to 948 nM.

In turn, `CC[C@H]1CN2CC[C@H]1C[C@@H]2[C@H](O)c1ccnc2ccc(O)cc12` registered an XC50 of 1040 nM.

With `Fc1cc(Cl)ccc1Nc1ccnc2cc(I)ccc12`, the XC50 was determined as 1130 nM.

Consider `O=C(Nc1ccc(-c2nc3cc4ccccc4cc3[nH]2)cc1)c1cccc(Br)c1`, for which the XC50 is 363 nM.

Consider `CCNc1cc(C(=O)N[C@@H](Cc2ccccc2)[C@H](O)CNC2CCC(C)(C)CC2)cc(N2CCCCS2(=O)=O)c1`, for which the XC50 came out at 647 nM.

`CCc1nc2nc(C)cc(Nc3ccc(F)c(Cl)c3)n2n1` had an XC50 of 974 nM.

Molecule `Cc1nc(-c2ccc(-c3ccc(C(=O)Nc4ccc(I)c(OCCN5CCCC5)c4)cc3)c(C)c2)no1` showed an XC50 of 964 nM.
